According to patent US5032680A (priority 1988, dated 1991):

Columns and labels:
[1] = test system: Mouse transplantable tumour Sarcoma 180 cells; assay: Measurement of antitumour activity value (Sarcoma 180 subcutaneously transplanted, oral administration); assay type: in vivo, male ICR/JCL mice; details: once a day for 9 consecutive days, tumour weight on day 12, Sarcoma 180, ICR/JCL mice; for ED50 (dose at which tumour proliferation-inhibitory rate is over 50%): 17280 min
Experimental: Mouse transplantable tumour Sarcoma 180 cells (5×10^6 cells) were transplanted subcutaneously into male ICR/JCL mice (weighing 27-30 g) in the back. The test compounds were dissolved or suspended in a 0.5 weight % aqueous solution of CMC containing Tween 80 at the concentration of 0.1 weight % to afford test preparations. Using 7 animals per group, the test preparations were orally administered to each mouse at the dose of 0.1 ml/10 g mouse body weight once a day for consecutive 9 days from the following day of the day when the tumours were transplanted.
On the twelfth day from the day of tumour-transplantation, the average weight of tumours for each of the test compounds at the respective doses was measured. The weight was compared with the average weight of the tumours of the control group, and the tumour proliferation-inhibitory rates of the test compounds based on that of the control group were estimated at the respective dose.

[2] = test system: tumour; details: cited from earlier work
[3] = in vivo; cited from earlier work
[4] = in vivo; cited from earlier work; remark: listed apart in the source

SMILES | ED50 (dose at which tumour proliferation-inhibitory rate is over 50%) [1] | also measured
Cc1cc(OP(=O)(OC[C@H]2O[C@@H](n3cc(F)c(=O)[nH]c3=O)C[C@@H]2O)Oc2ccccc2)ccc1Cl (stereo partly drawn) [Ex. 6, 4-chloro-3-methylphenyl phenyl 2'-deoxy-5-fluoro-5'-uridylate] | 6.2 mg/kg | –
O=c1[nH]c(=O)n([C@H]2C[C@H](O)[C@@H](COP(=O)(Oc3ccc(F)cc3)Oc3ccc(F)cc3)O2)cc1F [Ex. 17, Di-p-fluorophenyl 2'-deoxy-5-fluoro-5'-uridylate] | 1.3 mg/kg | –
O=c1[nH]c(=O)n([C@H]2C[C@H](O)[C@@H](COP(=O)(Oc3ccccc3Cl)Oc3ccccc3Cl)O2)cc1F [Ex. 8, Di-o-chlorophenyl 2'-deoxy-5-fluoro-5'-uridylate] | 10.0 mg/kg | –
O=c1[nH]c(=O)n([C@H]2C[C@H](O)[C@@H](COP(=O)(Oc3ccc4c(c3)OCO4)Oc3ccc4c(c3)OCO4)O2)cc1F [Ex. 13, Di(3,4-methylenedioxyphenyl) 2'-deoxy-5-fluoro-5'-uridylate] | 25.0 mg/kg | –
O=C(c1ccccc1)n1c(=O)c(F)cn([C@H]2C[C@H](O)[C@@H](COP(=O)(Oc3ccccc3)Oc3ccccc3)O2)c1=O [Ex. 3, diphenyl 3-benzoyl-2'-deoxy-5-fluoro-5'-uridylate] | 7.0 mg/kg | –
O=c1[nH]c(=O)n([C@H]2C[C@H](O)[C@@H](COP(=O)(Oc3ccc(Cl)c(Cl)c3)Oc3ccc(Cl)c(Cl)c3)O2)cc1F [Ex. 12, Di(3,4-dichlorophenyl) 2'-deoxy-5-fluoro-5'-uridylate] | 2.5 mg/kg | –
O=c1[nH]c(=O)n([C@H]2C[C@H](O)[C@@H](COP(=O)(Oc3ccc([N+](=O)[O-])cc3)Oc3ccc([N+](=O)[O-])cc3)O2)cc1F [Ex. 24, di-p-nitrophenyl 2'-deoxy-5-fluoro-5'-uridylate] | 5.4 mg/kg | –
O=c1[nH]c(=O)n([C@H]2C[C@H](O)[C@@H](COP(=O)(Oc3ccc(Cl)cc3)Oc3ccc(Cl)cc3)O2)cc1F [Ex. 7, di-p-chlorophenyl 2'-deoxy-5-fluoro-5'-uridylate] | 1.4 mg/kg | –
O=c1[nH]c(=O)n([C@H]2C[C@H](O)[C@@H](COP(=O)(Sc3ccc(Cl)cc3)Sc3ccc(Cl)cc3)O2)cc1F [Ex. 26, 2'-deoxy-5-fluorouridine 5'-(S,S-di-p-chlorophenylphosphorodithioate)] | 4.2 mg/kg | –
N#Cc1ccc(OP(=O)(OC[C@H]2O[C@@H](n3cc(F)c(=O)[nH]c3=O)C[C@@H]2O)Oc2ccc(C#N)cc2)cc1 [Ex. 16, Di-p-cyanophenyl 2'-deoxy-5-fluoro-5'-uridylate] | 6.1 mg/kg | –
O=c1[nH]c(=O)n([C@H]2C[C@H](O)[C@@H](CO)O2)cc1F [FdUrd, 2'-deoxy-5-fluorouridine] | – | ED50 ([1]; Mus musculus, 288 h, read-out: ED50 (dose at which tumour proliferation-inhibitory rate is over 50%)): 59.5 mg/kg; tumour proliferation-inhibitory action (in words) ([2]; cytostatic potency test (in vivo)): extremely potent tumour proliferation-inhibitory action; effect as compared with 5-fluorouracil (in words) ([2]; in vivo): can not be found to exhibit any particular superior effects as compared with 5-fluorouracil; decomposition into 5-fluorouracil (in words) [3]: a large portion thereof is decomposed into 5-fluorouracil; metabolism and excretion (in words) [3]: rapidly metabolized and excreted; toxicity of FdUrd (in words) [4]: the toxicity thereof is strong
O=c1[nH]c(=O)n([C@H]2C[C@H](O)[C@@H](COP(=O)(Oc3ccc(Cl)cc3Cl)Oc3ccc(Cl)cc3Cl)O2)cc1F [Ex. 11, Di(2,4-dichlorophenyl) 2'-deoxy-5-fluoro-5-uridylate] | 1.5 mg/kg | –
O=c1[nH]c(=O)n([C@H]2C[C@H](O)[C@@H](COP(=O)(Oc3cccc(Cl)c3Cl)Oc3cccc(Cl)c3Cl)O2)cc1F [Ex. 10, Di(2,3-dichlorophenyl) 2'-deoxy-5-fluoro-5'-uridylate] | 3.6 mg/kg | –
O=c1[nH]c(=O)n([C@H]2C[C@H](O)[C@@H](COP(=O)(Oc3ccc(C(F)(F)F)cc3)Oc3ccc(C(F)(F)F)cc3)O2)cc1F [Ex. 19, Di-p-trifluoromethylphenyl 2'-deoxy-5-fluoro-5'-uridylate] | 0.9 mg/kg | –
O=c1[nH]c(=O)n([C@H]2C[C@H](O)[C@@H](COP(=O)(Oc3cccc(Cl)c3)Oc3cccc(Cl)c3)O2)cc1F [Ex. 9, Di-m-chlorophenyl 2'-deoxy-5-fluoro-5'-uridylate] | 1.4 mg/kg | –
CC(=O)O[C@H]1C[C@H](n2cc(F)c(=O)[nH]c2=O)O[C@@H]1COP(=O)(Oc1ccc(Cl)cc1)Oc1ccc(Cl)cc1 [Ex. 22, di-p-chlorophenyl 3'-acetyl-2'-deoxy-5-fluoro-5'-uridylate] | 1.2 mg/kg | –
O=c1[nH]c(=O)n([C@H]2C[C@H](O)[C@@H](COP(=O)(Oc3ccccc3)Oc3ccccc3)O2)cc1F [Ex. 1, diphenyl 2'-deoxy-5-fluoro-5'-uridylate] | 11.1 mg/kg | –
O=c1[nH]c(=O)n([C@H]2C[C@H](O)[C@@H](COP(=O)(Oc3ccc(Br)cc3)Oc3ccc(Br)cc3)O2)cc1F [Ex. 18, Di-p-bromophenyl 2'-deoxy-5-fluoro-5'-uridylate] | 1.2 mg/kg | –
CC(C)=CCCC(C)CCOP(=O)(OC[C@H]1O[C@@H](n2cc(F)c(=O)[nH]c2=O)C[C@@H]1O)Oc1ccccc1 (stereo partly drawn) [Ex. 5, citroneryl phenyl 2'-deoxy-5-fluoro-5'-uridylate] | 23.8 mg/kg | –
